Measurements from patent publication US5380729A, “12-hetero substituted 6,11-ethano-6,11-dihydrobenzo (b) quinolizinium salts and compositions and method of use thereof” (Sterling Winthrop Inc., priority 1993, dated 1995).

Assays:
[1] = test system: NMDA-induced neurotoxicity in cultured cortical neurons; assay: Antagonism of NMDA-induced neurotoxicity in cultured neurons (LDH release); format: cell-based, mouse (Swiss-Webster); conditions: 500 μM NMDA, 30 minutes, LDH activity at 24 hours, mouse cortical neurons
Experimental: Antagonism of NMDA-induced Neurotoxicityin Cultured Neurons
Preparation of Cultured Cortical Neurons
Pregnant, Swiss-Webster mice were obtained from Taconic Farms (Germantown, New York) and sacrificed 16 days post conception. Fetuses were removed and placed in a sterile dish containing Hank's balanced salt solution (HBSS), pH 7.4. Brain cortices were dissected, meninges were removed, the tissue was minced and placed into a solution of HBSS containing 0.25% (w/v) trypsin at 37° C. for 15 minutes. Tissue was then triturated with a sterile pasteur pipet, diluted with minimal essential media (Gibco 330-1430), pH 7.4, supplemented with 10% horse serum, 10% fetal calf serum, 2 mM 1-glutamine, 21 mM d-glucose, 2.2 g/L sodium bicarbonate, 1000 u/ml penicillin, and 1,000 μg/ml streptomycin. Cells were plated onto Falcon primaria 96 well plates at a final density of 50,000 cells/well and incubated at 37° C. in the presence of 5% (v/v) carbon dioxide. After 5 days, plating media was replaced with maintenance media containing minimal essential media (Gibco 330- 1430), pH 7.4, supplemented with 10% horse serum, 10% 1-glutamine, 21 mM d-glucose, 2.2 g/l sodium bicarbonate,1,000 U/ml penicillin, 1,000 μg/ml streptomycin, and 10 μM cytosine arabinoside. On days 7 and 10, media was replaced with maintenance media as above lacking the cytosine arabinoside. Experiments were conducted on day 13.
Neuroprotection Assessment
Day 13 cultured cortical neurons were washed twice with minimal essential media, pH 7.4 and then exposed for 30 minutes to 500 μM N-methyl-D-aspartic acid (NMDA) with or without varying concentrations of test agents. Dizocilpine (MK-801) at a final concentration of 10 μM MK-801 was routinely included as a positive control. MK-801 and test agents were prepared in minimal essential media supplemented with 21 mM d-glucose and 2.2 g/L sodium bicarbonate (MEM). After 30 minutes, media was replaced with MEM alone. Exposure of neurons to test agents was limited to the NMDA treatment period. Twenty-four hours after removal of NMDA, an aliquot of media from each well was removed for assessment of cell injury by determining lactate dehydrogenase (LDH) activity by. the method of Wroblewski and LaDue Proc. Soc. Exp. Biol. Med. 1955, 90, 210-213. The results are expressed as an IC50 (in nM) value (concentration causing 50% inhibition) for the antagonism of NMDA--inducedneurotoxicity.

[2] = Comparison of separate enantiomers with the racemate (test not specified); conditions: (-)-enantiomer vs (+)-enantiomer or racemate
PCP recognition sites [3] = assay: [3H]TCP Radioreceptor Assay (internal screen); format: binding, rat (male Sprague-Dawley; conditions: rat whole brain membranes, room temperature, 25 min; for Ki: ~1 nM [3H]TCP
Experimental: [^3 H]TCP Radioreceptor Assay (internal screen)
[^3 H]TCP binding to PCP recognition sites was performed as described by Vignon et al. Brain Research 1983, 280, 194°197. Male Sprague-Dawley rats were sacrificed by decapitation, and whole brains were homogenized in 10 volumes (wt/vol) of cold Tris-HCl buffer (50 mM, pH 7.7) using a Brinkmann Polytron (setting 6, 30 sec). The homogenate was centrifuged at 40,000×g for 10 min at 4° C. The supernatant was decanted, and the homogenization and centrifugation steps were repeated twice as described above. Following this, the pellet was resuspended in Tris-HCl (5 mM, pH 7.7) at a tissue concentration of 0.5°0.75 g/ml, and one ml aliquots were frozen at -70° C. until use. The binding characteristics for PCP recognition sites were not altered by the freezing of membrane suspensions.
On the day of the assay, membrane aliquots were thawed, resuspended in fresh 5 mM Tris-HCl buffer at a tissue concentration of 1 mg/ml, and stored on ice until use. Each assay tube contained 100 μl of [^3 H]TCP at a final concentration of approximately 1 nM, 100 μl of various concentrations of the compounds of interest, 500 μl of the tissue suspension and 300 of buffer to a final assay volume of 1 ml and a final protein concentration of 0.5 mg/tube. Non-specific binding was defined by addition of a final concentration of 100 μM PCP to blank tubes. All tubes were incubated at room temperature for 25 min before termination of the reaction by rapid filtration over Whatman GF/B glass fiber filters that had been presoaked in a solution of 0.5% polyethylenimine for at least 1 hr prior to use. Filters were washed with three 4 ml volumes of cold Tris buffer. Following addition of scintillation cocktail, the amount of bound radioactivity was determined by liquid scintillation spectrometry using a Beckman LS 5000TA liquid scintillation counter with an efficiency for tritium of approximately 55% . Inhibition constants (Ki values) were calculated using the EBDA/LIGAND program (McPherson, J. Pharmacol. Meth. 1985, 14, 213-228), purchased from Elsevier/Biosoft, Inc. Results are reported as Ki values or as a percent (%) inhibition of binding at 10

PCP recognition sites [4] = assay: [3H]TCP Radioreceptor Assay (external screen); format: binding, rat (whole rat forebrain membranes); conditions: @ 10 μM; rat forebrain membranes; 25° C., 60 minutes
Experimental: Representative compounds of the invention were also tested in an external [^3 H]TCP radioreceptor assay using the following protocol:
[^3 H]TCP Radioreceptor Assay (external screen)
A procedure similar to that described above for the [^3 H]TCP radioreceptor assay (internal screen) was utilized except that the whole rat forebrain membranes were incubated at 25° C. for 60 minutes rather than at room temperature for 25 minutes, before termination of the reaction. The results are reported as a percent (%) inhibition of binding at 10 μM.

SMILES	IC50 [1]	Percent inhibition, [3H]TCP (external screen) (PCP recognition sites [4])	Ki (PCP recognition sites [3])	other results
CCOC1(OCC)C2c3ccccc3C([n+]3ccccc32)C1(C)C (single isomer, unassigned; (-)) [Example 12(c), (-)-12,12-diethoxy-13,13-dimethyl-6,11-ethano-6,11-dihydrobenzo[b]quinolizinium chloride. 1/2-7/4 hydrate]	26 nM	–	–	potency compared to the (+)-enantiomer (Example 13(c)) or the racemate (Example 2) [2]: more potent; side effects compared to the (+)-enantiomer (Example 13(c)) or the racemate (Example 2) [2]: fewer side effects; Ki (PCP recognition sites [3]; hydrate): 4.03 nM
CCOC1(OCC)CC2c3ccccc3C1(C)c1cccc[n+]12.[O-][Cl+3]([O-])([O-])[O-] (centres unmarked) [63(c), 11-Methyl-12,12-diethoxy-6,11-ethano-6,11-dihydrobenzo[b]quinolizinium perchlorate]	–	0%	9300 nM	–
CCOC1(OCC)C2c3c(C)ccc(C)c3C(C1C)[n+]1ccccc12.[O-][Cl+3]([O-])([O-])[O-] (centres unmarked) [63(e), 7,10-Dimethyl-12,12-diethoxy-13-methyl-6,11-ethano-6,11-dihydrobenzo[b]quinolizinium perchlorate]	–	65%	255 nM	–
CCOC1(OCC)CC2c3c(C)cccc3C1c1cccc[n+]12.[O-][Cl+3]([O-])([O-])[O-] (centres unmarked) [63(f), 7-Methyl-12,12-diethoxy-6,11-ethano-6,11-dihydrobenzo[b]quinolizinium perchlorate]	–	34%	7430 nM	–
CCOC1(OCC)CC2c3ccc(C)cc3C1c1cccc[n+]12.[O-][Cl+3]([O-])([O-])[O-] (centres unmarked) [63(g), 9-Methyl-12,12-diethoxy-6,11-ethano-6,11-dihydrobenzo[b]quinolizinium perchlorate]	–	0%	–	Percent inhibition, [3H]TCP (internal screen) (PCP recognition sites [3]; @ 10 μM): 68%
CCOC1(OCC)CC2c3c(C)ccc(C)c3C1c1cccc[n+]12.[O-][Cl+3]([O-])([O-])[O-] (centres unmarked) [63(h), 7,10-Dimethyl-12,12-diethoxy-6,11-ethano-6,11-dihydrobenzo[b]quinolizinium perchlorate]	–	52%	–	–
CCOC1(OCC)CC2c3cc(C)c(C)cc3C1c1cccc[n+]12.[O-][Cl+3]([O-])([O-])[O-] (centres unmarked) [63(i), 8,9-Dimethyl-12,12-diethoxy-6,11-ethano-6,11-dihydrobenzo[b]quinolizinium perchlorate]	–	35%	2260 nM	–
CCOC1(OCC)C2c3ccccc3C([n+]3ccccc32)C1(C)C (centres unmarked) [Example 2, 12,12-diethoxy-13,13-dimethyl-6,11-ethano-6,11-dihydrobenzo[b]quinolizinium chloride-1/4 H2 O]	–	–	5.3 nM	IC50 ([1]; Cortical neurone): 30 to 50 nM
CCOC1(OCC)C2c3c(Br)cccc3C([n+]3ccccc32)C1(C)C.[O-][Cl+3]([O-])([O-])[O-] (centres unmarked) [Example 29, 6,11-ethano-12,12-diethoxy-13,13-dimethyl-10-bromo-6,11-dihydrobenzo[b]quinolizinium perchlorate]	1040 nM	–	132 nM	–
CCOC1(OCC)C2c3cc(Br)ccc3C([n+]3ccccc32)C1(C)C.[O-][Cl+3]([O-])([O-])[O-] (centres unmarked) [Example 35, 6,11-ethano-12,12-diethoxy-13,13-dimethyl-9-bromo-6,11-dihydrobenzo[b]quinolizinium perchlorate]	173 nM	–	61.5 nM	–
CCOC1(OCC)C2c3ccccc3C(C1C)[n+]1ccccc12.[O-][Cl+3]([O-])([O-])[O-] (centres unmarked) [Example 38, 6,11-ethano-12,12-diethoxy-13-methyl-6,11-dihydrobenzo[b]quinolizinium perchlorate]	1160 nM	–	33.8 nM	–
CCCOC1(OCCC)C2c3ccccc3C([n+]3ccccc32)C1(C)C.[O-][Cl+3]([O-])([O-])[O-] (centres unmarked) [Example 39, 6,11-ethano-12,12-dipropoxy-13,13-dimethyl-6,11-dihydrobenzo[b]quinolizinium perchlorate]	85 nM	–	11.5 nM	–
CCOC1(OCC)C2c3cc([N+](=O)[O-])ccc3C([n+]3ccccc32)C1(C)C.[O-][Cl+3]([O-])([O-])[O-] (centres unmarked) [Example 46, 6,11-ethano-12,12-diethoxy-13,13-dimethyl-9-nitro-6,11-dihydrobenzo[b]quinolizinium perchlorate]	15300 nM	–	2760 nM	–
CCOC1(OCC)C2(C)c3ccccc3C([n+]3ccccc32)C1(C)C.[O-][Cl+3]([O-])([O-])[O-] (centres unmarked) [Example 51, 6,11-ethano-12,12-diethoxy-13,13-dimethyl-11-methyl-6,11-dihydrobenzo[b]quinolizinium perchlorate]	–	–	11.3 nM	IC50 ([1]; Cortical neurone): 32.4 nM
